One compound from patent US20230233615A1, “PHARMACEUTICAL COMPOSITION FOR TREATING ALZHEIMER'S DISEASE” (Gwo Xi Stem Cell Applied Technology Co., Ltd., priority 2022, published 2023) can be followed below.

Experiment [1] deals with IL-1β. Briefly: Inhibition on NLRP3 by EVs, IL-1β in BV2 microglia cell line. It is filed as cell-based. The settings on record: BV2 cells, LPS + ATP, 48 hours, 100 mM of mefenamic acid. The method, then:
(§1) In order to investigate anti-inflammatory and NLR family pyrindomain containing 3 (NLRP3) inflammasome inhibitory effects of ADSC-derived EVs, a study was performed using a BV2 microglia cell line (hereinafter referred to as BV2 cells). BV2 cells were initiated with 100 ng/ml of LPS and 5 mM of ATP, and 100 mM of mefenamic acid (a positive control group) or a low dose of ADSC-derived EVs (2×10^5 particles/cell) or a high dose of ADSC-derived EVs (2×10^6 particles/cell) in a humidified environment with 5%CO2 at 37° C. for 48 hours.

The test system of experiment [2] is IL-18. Briefly: Inhibition on NLRP3 by EVs, IL-18 in BV2 microglia cell line. It is filed as cell-based. The settings on record: BV2 cells, LPS + ATP, 48 hours, 100 mM of mefenamic acid. As for the experimental part:
as §1

Consider `Cc1cccc(Nc2ccccc2C(=O)O)c1C` [mefenamic acid], for which the results for the “inhibited expression of IL-1β (compared to PBS group)” value in experiment [1] (first stated set) and in experiment [1] (second stated set) were 35.4% and 69.5%, respectively. Moreover, the “inhibited expression of IL-18 (compared to PBS group)” value in experiment [2] (first stated set) is reported as 29.2%. The “expression of IL-18 (compared to PBS group)” value in experiment [2] (second stated set) is “no significant change”.
